# Measurements taken from patent US6458748B1, “Di- or tri-fluoromethanesulfonyl anilide derivatives, process for the preparation of them and herbicides containing them as the active ingredient” (Ihara Chemical Industry Co., Ltd., priority 1998, dated 2002).
# Columns and labels:
# [1] = test system: Echinochloa oryzicola vasing.; assay: Test 1 paddy pot herbicidal effect, water surface application; format: in vivo; conditions: applied day after sowing, evaluated 28 days later
# Description: (§1) Standard of herbicidal effect (level of suppression of development and growth) […] Herbicidal effect of 90% or more, injury to paddy rice […] Herbicidal effect of 70% or more to less than 90%, injury to paddy rice […] 2: […]
# [2] = test system: Monochoria vaginalis (Burm. f.) Presl var. plantaginea (Roxb.) Solms-Laub.; assay: as above; format: in vivo; conditions: applied day after sowing, evaluated 28 days later
# Description: as §1
# [3] = test system: Monochoria vaginalis (Burm. f.) Presl var. plantaginea (Roxb.) Solms-Laub.; assay: Test 2 paddy pot herbicidal effect with water drainage and feeding; format: in vivo; conditions: water drainage and feeding 2 cm per day for two days, 28th day
# Procedure: (§2) Further, a tuber of Sagittaria pygmaea Miq. was buried. […] For two days starting from the next day, water drainage and feeding each of 2 cm in depth per day were conducted.
# Sagittaria pygmaea Miq. = assay: as above; format: in vivo; conditions: water drainage and feeding 2 cm per day for two days, 28th day
# Procedure: as §2
# [4] = test system: Echinochloa oryzicola vasing.; assay: Test 3 herbicidal effect, application before germination or at 3-leaf stage; conditions: 28th day from application
Structure (SMILES),Herbicidal effect Ec ([1]; 0.4 g/10 ares),Herbicidal effect Ec ([1]; 1.6 g/10 ares),Herbicidal effect Ec ([1]; 6.3 g/10 ares),Herbicidal effect Ec ([1]; 25.0 g/10 ares),Herbicidal effect Mo ([2]; 0.4 g/10 ares),Herbicidal effect Mo ([2]; 1.6 g/10 ares),Herbicidal effect Mo ([2]; 6.3 g/10 ares),Herbicidal effect Mo ([2]; 25.0 g/10 ares),Herbicidal effect (Ec) Application at 3-leaf stage ([4]; 0.3 g/10 ares),Herbicidal effect (Ec) Application before germination ([4]; 0.3 g/10 ares),Herbicidal effect (Ec) Application at 3-leaf stage ([4]; 0.6 g/10 ares),Herbicidal effect (Ec) Application before germination ([4]; 0.6 g/10 ares),Herbicidal effect (Ec) Application at 3-leaf stage ([4]; 1.3 g/10 ares),Herbicidal effect (Ec) Application before germination ([4]; 1.3 g/10 ares),Herbicidal effect (Ec) Application at 3-leaf stage ([4]; 2.5 g/10 ares),Herbicidal effect (Ec) Application before germination ([4]; 2.5 g/10 ares),Herbicidal effect (Ec) Application at 3-leaf stage ([4]; 5.0 g/10 ares),Herbicidal effect (Ec) Application before germination ([4]; 5.0 g/10 ares),other results
"COc1cc(OC)nc(C(O)c2ccccc2NS(=O)(=O)C(F)F)n1 (centres unmarked) [Example 1, 2-[(4,6-dimethoxypyrimidine-2-yl)hydroxymethyl]-N-difluoromethanesulfonyl anilide]","1 (Herbicidal effect of 10% or more to less than 30%, injury to paddy rice)","3 (Herbicidal effect of 50% or more to less than 70%, injury to paddy rice)","4 (Herbicidal effect of 70% or more to less than 90%, injury to paddy rice)","5 (Herbicidal effect of 90% or more, injury to paddy rice)","5 (Herbicidal effect of 90% or more, injury to paddy rice)","5 (Herbicidal effect of 90% or more, injury to paddy rice)","5 (Herbicidal effect of 90% or more, injury to paddy rice)","5 (Herbicidal effect of 90% or more, injury to paddy rice)","0 (Herbicidal effect of less than 10%, injury to paddy rice)","1 (Herbicidal effect of 10% or more to less than 30%, injury to paddy rice)","1 (Herbicidal effect of 10% or more to less than 30%, injury to paddy rice)","2 (Herbicidal effect of 30% or more to less than 50%, injury to paddy rice)","2 (Herbicidal effect of 30% or more to less than 50%, injury to paddy rice)","3 (Herbicidal effect of 50% or more to less than 70%, injury to paddy rice)","4 (Herbicidal effect of 70% or more to less than 90%, injury to paddy rice)","5 (Herbicidal effect of 90% or more, injury to paddy rice)","5 (Herbicidal effect of 90% or more, injury to paddy rice)","5 (Herbicidal effect of 90% or more, injury to paddy rice)","Herbicidal effect Ec ([3]; 0.6 g/10 ares): 2 (Herbicidal effect of 30% or more to less than 50%, injury to paddy rice); Herbicidal effect Ec ([3]; 1.3 g/10 ares): 4 (Herbicidal effect of 70% or more to less than 90%, injury to paddy rice); Herbicidal effect Ec ([3]; 2.5 g/10 ares): 5 (Herbicidal effect of 90% or more, injury to paddy rice); Herbicidal effect Ec ([3]; 5.0 g/10 ares): 5 (Herbicidal effect of 90% or more, injury to paddy rice); Herbicidal effect Sc (Sagittaria pygmaea Miq.; 0.6 g/10 ares): 2 (Herbicidal effect of 30% or more to less than 50%, injury to paddy rice); Herbicidal effect Sc (Sagittaria pygmaea Miq.; 1.3 g/10 ares): 5 (Herbicidal effect of 90% or more, injury to paddy rice); Herbicidal effect Sc (Sagittaria pygmaea Miq.; 2.5 g/10 ares): 5 (Herbicidal effect of 90% or more, injury to paddy rice); Herbicidal effect Sc (Sagittaria pygmaea Miq.; 5.0 g/10 ares): 5 (Herbicidal effect of 90% or more, injury to paddy rice)"
"COCc1cccc(C(O)c2nc(OC)cc(OC)n2)c1NS(=O)(=O)C(F)F (centres unmarked) [Example 2, 2-[(4,6-dimethoxypyrimidine-2-yl)hydroxymethyl]-6-methoxymethyl-N-difluoromethanesulfonyl anilide]","4 (Herbicidal effect of 70% or more to less than 90%, injury to paddy rice)","5 (Herbicidal effect of 90% or more, injury to paddy rice)","5 (Herbicidal effect of 90% or more, injury to paddy rice)","5 (Herbicidal effect of 90% or more, injury to paddy rice)","5 (Herbicidal effect of 90% or more, injury to paddy rice)","5 (Herbicidal effect of 90% or more, injury to paddy rice)","5 (Herbicidal effect of 90% or more, injury to paddy rice)","5 (Herbicidal effect of 90% or more, injury to paddy rice)","3 (Herbicidal effect of 50% or more to less than 70%, injury to paddy rice)","4 (Herbicidal effect of 70% or more to less than 90%, injury to paddy rice)","4 (Herbicidal effect of 70% or more to less than 90%, injury to paddy rice)","5 (Herbicidal effect of 90% or more, injury to paddy rice)","5 (Herbicidal effect of 90% or more, injury to paddy rice)","5 (Herbicidal effect of 90% or more, injury to paddy rice)","5 (Herbicidal effect of 90% or more, injury to paddy rice)","5 (Herbicidal effect of 90% or more, injury to paddy rice)","5 (Herbicidal effect of 90% or more, injury to paddy rice)","5 (Herbicidal effect of 90% or more, injury to paddy rice)",
"CCc1cccc(C(O)c2nc(OC)cc(OC)n2)c1NS(=O)(=O)C(F)F (centres unmarked) [Example 3, 2-[(4,6-dimethoxypyrimidine-2-yl)hydroxymethyl]-6-ethyl-N-difluoromethanesulfonyl anilide]","4 (Herbicidal effect of 70% or more to less than 90%, injury to paddy rice)","5 (Herbicidal effect of 90% or more, injury to paddy rice)","5 (Herbicidal effect of 90% or more, injury to paddy rice)","5 (Herbicidal effect of 90% or more, injury to paddy rice)","5 (Herbicidal effect of 90% or more, injury to paddy rice)","5 (Herbicidal effect of 90% or more, injury to paddy rice)","5 (Herbicidal effect of 90% or more, injury to paddy rice)","5 (Herbicidal effect of 90% or more, injury to paddy rice)","2 (Herbicidal effect of 30% or more to less than 50%, injury to paddy rice)","4 (Herbicidal effect of 70% or more to less than 90%, injury to paddy rice)","4 (Herbicidal effect of 70% or more to less than 90%, injury to paddy rice)","5 (Herbicidal effect of 90% or more, injury to paddy rice)","5 (Herbicidal effect of 90% or more, injury to paddy rice)","5 (Herbicidal effect of 90% or more, injury to paddy rice)","5 (Herbicidal effect of 90% or more, injury to paddy rice)","5 (Herbicidal effect of 90% or more, injury to paddy rice)","5 (Herbicidal effect of 90% or more, injury to paddy rice)","5 (Herbicidal effect of 90% or more, injury to paddy rice)",
